Our source for the IC50 values is ChEMBL document CHEMBL5727416, “Bicyclic heteroarylaminoalkyl phenyl derivatives as PI3K inhibitors” (2019).

This assay has as its target T1, Phosphatidylinositol 4,5-bisphosphate 3-kinase catalytic subunit delta isoform (Homo sapiens, UniProt O00329).
T1 sequence (O00329 whole entry): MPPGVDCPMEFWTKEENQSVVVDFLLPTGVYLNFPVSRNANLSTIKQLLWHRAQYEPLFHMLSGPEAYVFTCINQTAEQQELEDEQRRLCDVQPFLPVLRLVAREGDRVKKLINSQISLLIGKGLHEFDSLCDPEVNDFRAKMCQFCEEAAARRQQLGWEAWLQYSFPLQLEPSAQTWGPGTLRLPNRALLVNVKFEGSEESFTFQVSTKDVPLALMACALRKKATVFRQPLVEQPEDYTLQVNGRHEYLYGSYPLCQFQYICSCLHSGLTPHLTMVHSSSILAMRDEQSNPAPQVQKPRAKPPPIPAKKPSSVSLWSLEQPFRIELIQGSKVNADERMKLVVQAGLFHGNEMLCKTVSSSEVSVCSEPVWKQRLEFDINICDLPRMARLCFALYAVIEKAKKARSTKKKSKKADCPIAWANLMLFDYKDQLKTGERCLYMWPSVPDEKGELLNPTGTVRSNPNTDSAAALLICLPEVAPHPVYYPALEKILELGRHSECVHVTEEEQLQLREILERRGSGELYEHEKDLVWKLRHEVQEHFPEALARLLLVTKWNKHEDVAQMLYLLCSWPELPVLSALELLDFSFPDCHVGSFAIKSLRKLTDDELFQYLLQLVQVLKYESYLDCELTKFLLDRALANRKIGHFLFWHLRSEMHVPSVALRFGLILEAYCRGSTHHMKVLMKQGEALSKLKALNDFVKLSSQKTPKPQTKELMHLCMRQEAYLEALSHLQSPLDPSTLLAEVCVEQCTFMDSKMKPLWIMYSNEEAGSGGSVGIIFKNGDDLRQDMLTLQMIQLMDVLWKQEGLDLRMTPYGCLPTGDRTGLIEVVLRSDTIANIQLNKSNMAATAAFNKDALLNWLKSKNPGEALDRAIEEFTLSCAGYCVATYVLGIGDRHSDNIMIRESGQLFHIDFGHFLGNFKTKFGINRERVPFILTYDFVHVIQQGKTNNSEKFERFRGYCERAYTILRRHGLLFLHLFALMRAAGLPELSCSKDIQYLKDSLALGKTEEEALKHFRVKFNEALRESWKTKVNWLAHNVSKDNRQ
Kind of assay: Scintillation Proximity Assay: PI3Kδ:The kinase reaction was conducted in polystyrene 384-well matrix white plate from Thermo Fisher Scientific in a final volume of 25 μL. Inhibitors were first diluted serially in DMSO and added to the plate wells before the addition of other reaction components. The final concentration of DMSO in the assay was 0.5%. The PI3K assays were carried out at room temperature in 20 mM MOPS, pH 6.7, 10 mM MgCl2, 5 mM DTT and CHAPS 0.03%. Reactions were initiated by the addition of ATP, the final reaction mixture consisted of 20 μM PIP2, 20 μM ATP, 0.2 μCi [γ-33P] ATP, 4 nM PI3Kδ. Reactions were incubated for 210 min and terminated by the addition of 40 μL SPA beads suspended in quench buffer: 150 mM potassium phosphate pH 8.0, 20% glycerol. 25 mM EDTA, 400 μM ATP. The final concentration of SPA beads was 1.0 mg/mL. After the plate sealing, plates were shaken overnight at room temperature and centrifuged at 1800 rpm for 10 minutes, the radioactivity of the product was determined by scintillation counting on Topcount (Perkin-Elmer). In general terms: In a scintillation proximity assay essentially only radioactivity close to the scintillant gives light.

Molecules are shown by their SMILES.

Usually IC50 stands for the concentration at which inhibition is half-maximal. In the case of `N#CCC(C1CCN(c2nc3cccnc3o2)C1)n1cc(-c2ncnc3[nH]ccc23)cn1` (stereo unspecified), the 50% inhibitory concentration (IC50) is < 10 nM.
